Values joined by “and” are separate entries in the source; they are usually repeats but may differ in a detail not shown here. Equal entries are not always repeated.
Test system: Pseudomonas aeruginosa ATCC 27853 (GN_042)
Assay: Synergy of cannabidiol with cell-wall disrupting agent (CBD MIC in combination, FICI)
Assay type: cell-based
Method: The compounds were stored short term at 4° C.
Analysis was performed using Microsoft Excel.

[1] = CBD with Ceftazidime, Pseudomonas aeruginosa ATCC 27853

For `C=C(C)C1CCC(C)=CC1c1c(O)cc(CCCCC)cc1O` (centres unmarked) [Cannabidiol, 2-[3-methyl-6-(1-methylethenyl)-2-cyclohexen-1-yl]-5-pentyl-1,3-benzenediol], the “CBD MIC with Aztreonam” value (Aztreonam at 4 μg/mL) was 0.001 µg/mL, the FICI (CBD with Aztreonam at 0.25 μg/mL, CBD MIC taken as 256 μg/mL) was 1.0625 and the FICI (CBD with Aztreonam at 1 μg/mL, CBD MIC taken as 256 μg/mL) was 1.25. The FICI (CBD with Aztreonam at 2 μg/mL, CBD MIC taken as 256 μg/mL) was 0.5004 and 0.5039, the FICI (CBD with Aztreonam at 4 μg/mL, CBD MIC taken as 256 μg/mL) was 1 and the FICI range (CBD with Aztreonam, Synergy table (Table 76)) was 0.5. The FICI range (CBD with Aztreonam, all tested concentrations (Table 74)) was 0.5-1.25, the FICI (CBD with Cefepime at 0.015 μg/mL, CBD MIC taken as 256 μg/mL) was 1 and the FICI (CBD with Cefepime at 0.031 μg/mL, CBD MIC taken as 256 μg/mL) was 1. It also gave an FICI (CBD with Cefepime at 0.062 μg/mL, CBD MIC taken as 256 μg/mL) of 1, an FICI (CBD with Cefepime at 0.25 μg/mL, CBD MIC taken as 256 μg/mL) of 1.001 and an FICI (CBD with Cefepime at 0.5 μg/mL, CBD MIC taken as 256 μg/mL) of 1.002. For the same compound, the FICI range (CBD with Cefepime, all tested concentrations (Table 79)) was 1-1, the FICI (CBD with Cefotetan at 4 μg/mL, CBD MIC taken as 256 μg/mL) was 1.016 and the FICI (CBD with Cefotetan at 16 μg/mL, CBD MIC taken as 256 μg/mL) was 1.0625. For the same compound, the FICI (CBD with Cefotetan at 64 μg/mL, CBD MIC taken as 256 μg/mL) was 1.25, the FICI (CBD with Cefotetan at 128 μg/mL, CBD MIC taken as 256 μg/mL) was 1.5 and the “FICI range (MIC table)” value (CBD with Cefotetan, Pseudomonas aeruginosa ATCC 27853) was 1.02-1.5. For the same compound, the FICI (CBD with Ceftazidime at 0.25 μg/mL, Pseudomonas aeruginosa ATCC 27853) was 1.0625, the FICI (CBD with Ceftazidime at 1 μg/mL, Pseudomonas aeruginosa ATCC 27853) was 1.25 and the FICI (CBD with Ceftazidime at 2 μg/mL, Pseudomonas aeruginosa ATCC 27853) was 0.5. The FICI (CBD with Ceftazidime at 4 μg/mL, Pseudomonas aeruginosa ATCC 27853) was 1, the “FICI range (MIC table)” value [1] was 0.5-1.25 and the “FICI range (Synergy table)” value [1] was 0.5. The FICI (CBD with Cefuroxime at 4 μg/mL, Pseudomonas aeruginosa ATCC 27853) was 1.016, the FICI (CBD with Cefuroxime at 16 μg/mL, Pseudomonas aeruginosa ATCC 27853) was 1.0625 and the FICI (CBD with Cefuroxime at 64 μg/mL, Pseudomonas aeruginosa ATCC 27853) was 1.25. The FICI (CBD with Cefuroxime at 128 μg/mL, Pseudomonas aeruginosa ATCC 27853) was 1.5, the FICI (CBD with Colistin at 0.031 μg/mL, Pseudomonas aeruginosa ATCC 27853) was 1.031 and the FICI (CBD with Colistin at 0.062 μg/mL, Pseudomonas aeruginosa ATCC 27853) was 1.062. The FICI (CBD with Colistin at 0.25 μg/mL, Pseudomonas aeruginosa ATCC 27853) was 1.25, the FICI (CBD with Colistin at 0.5 μg/mL, Pseudomonas aeruginosa ATCC 27853) was 1.5 and the FICI (CBD with Colistin at 1 μg/mL, Pseudomonas aeruginosa ATCC 27853) was 1. For the same compound, the “FICI range (MIC table)” value (CBD with Colistin, Pseudomonas aeruginosa ATCC 27853) was 1-1.5, the “FICI range (MIC table)” value (CBD with MCC_6442, Pseudomonas aeruginosa ATCC 27853) was 1-1.5 and the FICI (CBD with MCC_6442 at 0.25 μg/mL, Pseudomonas aeruginosa ATCC 27853) was 1.0625. It also gave an FICI (CBD with MCC_6442 at 1 μg/mL, Pseudomonas aeruginosa ATCC 27853) of 1.25, an FICI (CBD with MCC_6442 at 2 μg/mL, Pseudomonas aeruginosa ATCC 27853) of 1.5 and an FICI (CBD with MCC_6442 at 4 μg/mL, Pseudomonas aeruginosa ATCC 27853) of 1. The FICI (CBD with Octapeptin C4 at 0.25 μg/mL, CBD MIC taken as 256 μg/mL) was 1.0625, the FICI (CBD with Octapeptin C4 at 0.5 μg/mL, CBD MIC taken as 256 μg/mL) was 1.0625 and the FICI (CBD with Octapeptin C4 at 1 μg/mL, CBD MIC taken as 256 μg/mL) was 1.25. The FICI (CBD with Octapeptin C4 at 2 μg/mL, CBD MIC taken as 256 μg/mL) was 1.25 and 1.5, the FICI (CBD with Octapeptin C4 at 4 μg/mL, CBD MIC taken as 256 μg/mL) was 0.5 and 1 and the FICI (CBD with Octapeptin C4 at […], CBD MIC taken as 256 μg/mL) was 1.016. The FICI range (CBD with Spero SPR206, 1st of 3 experiments) was 1-4, the FICI range (CBD with Spero SPR206, 3rd of 3 experiments) was 1.13-5 and the FICI (CBD with Spero SPR206 at 0.25 μg/mL, 1st of 3 experiments, CBD MIC taken as 256 μg/mL) was 1.25. The FICI (CBD with Spero SPR206 at 0.25 μg/mL, 3rd of 3 experiments, CBD MIC taken as 256 μg/mL) was 1.25, the FICI (CBD with Spero SPR206 at 0.5 μg/mL, 1st of 3 experiments, CBD MIC taken as 256 μg/mL) was 1.5 and the FICI (CBD with Spero SPR206 at 0.5 μg/mL, 3rd of 3 experiments, CBD MIC taken as 256 μg/mL) was 1.5. The FICI (CBD with Spero SPR206 at 1 μg/mL, 1st of 3 experiments, CBD MIC taken as 256 μg/mL) was 1, the FICI (CBD with Spero SPR206 at 1 μg/mL, 3rd of 3 experiments, CBD MIC taken as 256 μg/mL) was 2 and the FICI (CBD with Spero SPR206 at 2 μg/mL, 1st of 3 experiments, CBD MIC taken as 256 μg/mL) was 2. For the same compound, the FICI (CBD with Spero SPR206 at 2 μg/mL, 3rd of 3 experiments, CBD MIC taken as 256 μg/mL) was 3, the FICI (CBD with Spero SPR206 at 4 μg/mL, 1st of 3 experiments, CBD MIC taken as 256 μg/mL) was 4 and the FICI (CBD with Spero SPR206 at 4 μg/mL, 3rd of 3 experiments, CBD MIC taken as 256 μg/mL) was 5. For the same compound, the FICI (CBD with Ticarcillin at 2 μg/mL, Pseudomonas aeruginosa ATCC 27853) was 1.0625, the FICI (CBD with Ticarcillin at 4 μg/mL, Pseudomonas aeruginosa ATCC 27853) was 1.25 and the FICI (CBD with Ticarcillin at 8 μg/mL, Pseudomonas aeruginosa ATCC 27853, listed as CBD) was 1.25 and 1.5. The FICI (CBD with Ticarcillin at 16 μg/mL, Pseudomonas aeruginosa ATCC 27853, listed as CBD) was 0.5 and 1, the FICI (CBD with Ticarcillin at 32 μg/mL, Pseudomonas aeruginosa ATCC 27853, listed as CBD) was 1 and 2 and the FICI (CBD with Ticarcillin at 64 μg/mL, Pseudomonas aeruginosa ATCC 27853, listed as CBD) was 2 and 4. The “FICI range (Synergy table)” value (CBD with Ticarcillin, Pseudomonas aeruginosa ATCC 27853) was 0.5, the “CBD MIC with Cefotetan” value (Cefotetan at 4 μg/mL) was >32 µg/mL and the “CBD MIC with Cefotetan” value (Cefotetan at 4 μg/mL, Pseudomonas aeruginosa ATCC 27853) was >256 µg/mL. For the same compound, the “CBD MIC with Cefotetan” value (Cefotetan at 8 μg/mL) was >32 µg/mL, the “CBD MIC with Cefotetan” value (Cefotetan at 8 μg/mL, Pseudomonas aeruginosa ATCC 27853) was >256 µg/mL and the “CBD MIC with Cefotetan” value (Cefotetan at 16 μg/mL) was >32 µg/mL. The “CBD MIC with Cefotetan” value (Cefotetan at 16 μg/mL, Pseudomonas aeruginosa ATCC 27853) was >256 µg/mL, the “CBD MIC with Cefotetan” value (Cefotetan at 32 μg/mL) was >32 µg/mL and the “CBD MIC with Cefotetan” value (Cefotetan at 32 μg/mL, Pseudomonas aeruginosa ATCC 27853) was >256 µg/mL. The “CBD MIC with Cefotetan” value (Cefotetan at 64 μg/mL) was >32 µg/mL, the “CBD MIC with Cefotetan” value (Cefotetan at 64 μg/mL, Pseudomonas aeruginosa ATCC 27853) was >256 µg/mL and the “CBD MIC with Cefotetan” value (Cefotetan at 128 μg/mL) was >32 µg/mL. For the same compound, the “CBD MIC with Cefotetan” value (Cefotetan at 128 μg/mL, Pseudomonas aeruginosa ATCC 27853) was >256 µg/mL, the “CBD MIC with Ceftazidime” value (Ceftazidime at 0.015 μg/mL as headed in Table 64, Pseudomonas aeruginosa ATCC 27853) was >256 µg/mL and the “CBD MIC with Ceftazidime” value (Ceftazidime at 0.031 μg/mL as headed in Table 64, Pseudomonas aeruginosa ATCC 27853) was >256 µg/mL. For the same compound, the “CBD MIC with Ceftazidime” value (Ceftazidime at 0.062 μg/mL as headed in Table 64, Pseudomonas aeruginosa ATCC 27853) was >256 µg/mL, the “CBD MIC with Ceftazidime” value (Ceftazidime at 0.25 μg/mL (Table 66), Pseudomonas aeruginosa ATCC 27853) was >32 µg/mL and the “CBD MIC with Ceftazidime” value (Ceftazidime at 0.25 μg/mL as headed in Table 64, Pseudomonas aeruginosa ATCC 27853) was 0.001 µg/mL. The “CBD MIC with Ceftazidime” value (Ceftazidime at 0.5 μg/mL (Table 66), Pseudomonas aeruginosa ATCC 27853) was >32 µg/mL and the “CBD MIC with Ceftazidime” value (Ceftazidime at 0.5 μg/mL as headed in Table 64, Pseudomonas aeruginosa ATCC 27853) was 0.001 µg/mL.

Source: patent publication US20230013669A1, “Antibacterial Treatment Using a Cannabinoid and an Active Agent” (priority 2019, published 2023)
